In patent publication US20130039904A1, “GAMBOGIC ACID CYCLIZATION ANALOGUES, THEIR PREPARATION METHOD AND APPLICATION THEREOF” (Liaoning Lifeng Scientific & Technology Development Company …, priority 2009, published 2013):
Values after ≈ are worked out from the molar mass of the structure shown. Where two headings read alike, the source gives them in different places.

Columns and labels:
mice sarcoma S180 = assay: Growth inhibition of S180 sarcoma in mice; assay type: in vivo, Kunming mice; set-up: Inhibition rate (%): concentration or dose not given beside the values; conditions: for Tumor weight / Inhibition rate (%): S180 sarcoma, Kunming mice, iv; for Inhibition rate (%): *P<0.01, **p<0.001 vs control; for anti-tumor efficacy, statistical significance: S180 sarcoma in mice, in words
Experimental: (§1) Test animals: Kunming kinds of healthy mice (19-21 g), 10 mice (5 male and 5 female)/group, from Beijing Institute of Military Medical Sciences Animal Center.
Tumor strains: mice sarcoma S180 for ascites passaged from Beijing Academy of Military Medical Institute of Pharmacology.
(§2) Xenografts cultured S180 tumor cells were implanted subcutaneously into the flank region of mice and tumors were allowed to grow to the desired average size of 100 mg. The mice were randomized into control and treatment groups with 10 mice per group. The control group was injected with the vehicle used to dissolve the drug. Other groups received the test compounds (example compound 5, 9, 10, 11, 13, 18, 19, 22, 24, 35, 306 and positive group, cyclophosphamide (CTX) and 5-fluorouracil (5-FU)) at the dose and schedule as indicated in Table VI. Injections were I.V. via the tail vein.

[1] = Body weight of S180 sarcoma-bearing mice; conditions: iv
Experimental: as §1, §2

[2] = system: human colorectal cancer cell line HT29; assay: In vitro anti-cancer cell experiment (MTT), HT29; assay type: cell-based; conditions: for IC50: Homo sapiens, HT-29; for anti-proliferative effect on HT29: HT29, in words
Experimental: (§3) a. Cell lines: Human pancreatic cancer cell line Panc-1, human colorectal cancer cell line HT29 and human lung cancer cell line NCI—H460; the medium: s DMEM (Gibco BRL), containing 10% fetal calf serum (Gibco BRL) and 2 mM L-glutamine (Gibco BRL).
(§4) b. Test samples: example compounds 5, 9, 10, 22 and 24. The samples were dissolved in dimethyl sulfoxide (DMSO, Sigma, United States) and medium was added to the final concentration of 0.5%. Cisplatin was as positive control of (CDDP, purity 96%, from Kunming Institute of Precious Metals).
(§5) c. Method: cells were digested with trypsin and dispersed into single cells in the medium containing penicillin (25 U/ml) and streptomycin (25 μg/ml). The cells were seeded in 96-well culture plates (Corning Incorporated), at 37° C., in a humidified atmosphere with 5% CO2 present for 24 hours. The culture medium was removed, […] test compounds were added, cultured for 48 hours. Culture medium was removed and […] (MTT, USA Sigma products) was added. The result was assayed by SK601-based microplate reader (Japan Seikagaku company's products), 570 nm/630 nm optical density (OD).
(§6) Calculation of cell viability: (Experimental group OD/control OD)×100%; Positive control CDDP was treated in the same way.

[3] = system: human lung cancer cell line NCI-H460; assay: In vitro anti-cancer cell experiment (MTT), NCI-H460; assay type: cell-based
Experimental: as §3, §4, §5, §6

[4] = system: Human pancreatic cancer cell line Panc-1; assay: In vitro anti-cancer cell experiment (MTT), Panc-1; assay type: cell-based; conditions: for anti-proliferative effect on Panc-1: Panc-1, in words
Experimental: as §3, §4, §5, §6

[5] = HT29 cells, 48 hours, MTT, read-out: IC50 HT29
[6] = NCI-H460 cells, 48 hours, MTT, read-out: IC50 NCI-H460
[7] = NCI-H460, text value, P<0.05, read-out: IC50 (anti-proliferative effect on NCI-H460)
[8] = HT29, text value, P<0.05, read-out: IC50 (anti-proliferative effect on HT29)

O=P1(N(CCCl)CCCl)NCCCO1 (stereo not shown) [CTX, cyclophosphamide, reference compound]
Tumor weight (mice sarcoma S180): 1.02 ± 0.88 g
Inhibition rate (%) (mice sarcoma S180): 46.5* %
body Weight (g) After ad. ([1]; after administration, S180 mice): 26.32 ± 3.58 g
body Weight (g) Before ad. ([1]; before administration, S180 mice): 21.48 ± 1.60 g

O=c1[nH]cc(F)c(=O)[nH]1 [Compound 5-FU, 5-fluorouracil, reference compound]
Tumor weight (mice sarcoma S180): 1.18 ± 0.49 g
Inhibition rate (%) (mice sarcoma S180): 42.8* %
IC50 [2, 5]: 14.4 µg/mL (≈ 110 µM)
body Weight (g) After ad. ([1]; mouse, in vivo): 28.55 ± 2.38 g
body Weight (g) Before ad. ([1]; mouse, in vivo): 22.59 ± 1.46 g

COC(=O)/C(C)=C\CC12OC(C)(C)[C@H]3C[C@@H](C=C4C(=O)c5c(OC(=O)c6ccc(O[C@@H]7O[C@@H]8COC(C)(C)O[C@H]8[C@H](O)[C@H]7O)cc6)c6c(c(CC=C(C)C)c5OC431)OC(C)(CCC=C(C)C)C=C6)C2=O (stereo partly shown) [Compound 5]
Tumor weight (mice sarcoma S180): 1.08 ± 0.63 g
Inhibition rate (%) (mice sarcoma S180): 45** %
IC50 [3, 6]: 7.73 nM
IC50 [2, 5]: 35.6 µg/mL (≈ 36.9 µM)
body Weight (g) After ad. ([1]; mouse, in vivo): 27.39 ± 2.91 g
body Weight (g) Before ad. ([1]; mouse, in vivo): 21.53 ± 1.77 g

COC(=O)/C(C)=C\CC12OC(C)(C)C3CC(C1=O)C1C4=C(Nc5nccn51)c1c(O)c5c(c(CC=C(C)C)c1OC432)OC(C)(CCC=C(C)C)C=C5 (stereo not shown) [Compound 9]
anti-tumor efficacy, statistical significance (mice sarcoma S180): statistically significant
Tumor weight (mice sarcoma S180): 0.56 ± 0.13 g
Inhibition rate (%) (mice sarcoma S180): 70.21** %
IC50 [3, 7]: 6.18 µg/mL
IC50 [3, 6]: 3.38 nM
anti-proliferative effect on HT29 [2]: showed anti-proliferative effect
IC50 [2, 8]: 1.03 µg/mL (≈ 1.46 µM)
IC50 [2, 5]: 1.03 µg/mL (≈ 1.46 µM)
body Weight (g) After ad. ([1]; mouse, in vivo): 23.58 ± 1.86 g
body Weight (g) Before ad. ([1]; mouse, in vivo): 20.53 ± 1.16 g
anti-proliferative effect on Panc-1 [4]: showed anti-proliferative effect

COC(=O)/C(C)=C\CC12OC(C)(C)C3CC(C1=O)C1C4=C(Nc5nc6ccccc6n51)c1c(O)c5c(c(CC=C(C)C)c1OC432)OC(C)(CCC=C(C)C)C=C5 (stereo not shown) [Compound 10]
Tumor weight (mice sarcoma S180): 1.24 ± 0.73 g
Inhibition rate (%) (mice sarcoma S180): 39.36* %
IC50 [3, 6]: 17.2 nM
anti-proliferative effect on HT29 [2]: showed anti-proliferative effect
IC50 [2, 5]: 38.3 µg/mL (≈ 50.6 µM)
body Weight (g) After ad. ([1]; mouse, in vivo): 25.12 ± 4.64 g
body Weight (g) Before ad. ([1]; mouse, in vivo): 20.32 ± 1.22 g
anti-proliferative effect on Panc-1 [4]: showed anti-proliferative effect

COC(=O)/C(C)=C\CC12OC(C)(C)C3CC(C=C4C(=O)c5c(OC(=O)CCC(=O)N6CCN(C)CC6)c6c(c(CC=C(C)C)c5OC431)OC(C)(CCC=C(C)C)C=C6)C2=O (stereo not shown) [Compound 11]
Tumor weight (mice sarcoma S180): 1.35 ± 0.59 g
Inhibition rate (%) (mice sarcoma S180): 31.01* %
body Weight (g) After ad. ([1]; mouse, in vivo): 26.30 ± 3.62 g
body Weight (g) Before ad. ([1]; mouse, in vivo): 19.92 ± 1.47 g

COC(=O)/C(C)=C\CC12OC(C)(C)C3CC(C1=O)C(N1CCOCC1)C1C(=O)c4c(OC(=O)CCl)c5c(c(CC=C(C)C)c4OC132)OC(C)(CCC=C(C)C)C=C5 (stereo not shown) [Compound 13]
Tumor weight (mice sarcoma S180): 1.06 ± 0.70 g
Inhibition rate (%) (mice sarcoma S180): 45** %
body Weight (g) After ad. ([1]; mouse, in vivo): 27.59 ± 2.52 g
body Weight (g) Before ad. ([1]; mouse, in vivo): 21.76 ± 1.93 g

COC(=O)/C(C)=C\CC12OC(C)(C)C3CC(C1=O)C1C4=C(Nc5ncnn51)c1c(O)c5c(c(CC=C(C)C)c1OC432)OC(C)(CCC=C(C)C)C=C5 (stereo not shown) [Compound 18]
Tumor weight (mice sarcoma S180): 1.42 ± 0.52 g
Inhibition rate (%) (mice sarcoma S180): 25.26%
body Weight (g) After ad. ([1]; mouse, in vivo): 27.37 ± 3.92 g
body Weight (g) Before ad. ([1]; mouse, in vivo): 20.16 ± 0.90 g

COC(=O)/C(C)=C\CC12OC(C)(C)C3CC(C1=O)C1C4=C(c5ccccc5C4=O)N(CCN)C4=C1C32Oc1c(CC=C(C)C)c2c(c(O)c14)C=CC(C)(CCC=C(C)C)O2 (stereo not shown) [Compound 22]
anti-tumor efficacy, statistical significance (mice sarcoma S180): statistically significant
Tumor weight (mice sarcoma S180): 0.88 ± 0.37 g
Inhibition rate (%) (mice sarcoma S180): 53.19** %
IC50 [3, 7]: 4.73 µg/mL
IC50 [3, 6]: 4.89 nM
anti-proliferative effect on HT29 [2]: showed anti-proliferative effect
IC50 [2, 8]: 3.62 µg/mL (≈ 4.45 µM)
IC50 [2, 5]: 3.62 µg/mL (≈ 4.45 µM)
body Weight (g) After ad. ([1]; mouse, in vivo): 25.77 ± 2.33 g
body Weight (g) Before ad. ([1]; mouse, in vivo): 19.34 ± 0.81 g
IC50 ([4]; Homo sapiens, Panc-1, text value, P<0.05, read-out: IC50 (anti-proliferative effect on Panc-1)): 3.26 µg/mL (≈ 4.01 µM)
anti-proliferative effect on Panc-1 [4]: showed anti-proliferative effect

COC(=O)/C(C)=C\CC12OC(C)(C)C3CC(C1=O)C1C4=C(Nc5nccn51)c1c(O[C@H]5O[C@@H](CO)[C@H](O)[C@@H](O)[C@@H]5O)c5c(c(CC=C(C)C)c1OC432)OC(C)(CCC=C(C)C)C=C5 (stereo partly shown) [Compound 24]
anti-tumor efficacy, statistical significance (mice sarcoma S180): statistically significant
Tumor weight (mice sarcoma S180): 0.65 ± 0.37 g
Inhibition rate (%) (mice sarcoma S180): 62.87** %
IC50 [3, 6]: 13.7 nM
anti-proliferative effect on HT29 [2]: showed anti-proliferative effect
IC50 [2, 5]: 54.1 µg/mL (≈ 62.2 µM)
body Weight (g) After ad. ([1]; mouse, in vivo): 27.61 ± 2.89 g
body Weight (g) Before ad. ([1]; mouse, in vivo): 20.71 ± 1.75 g
anti-proliferative effect on Panc-1 [4]: showed anti-proliferative effect

COC(=O)/C(C)=C\CC12OC(C)(C)C3CC(C1=O)C1C4=C(Nc5nccn51)c1c(OCCNCCO)c5c(c(CC=C(C)C)c1OC432)OC(C)(CCC=C(C)C)C=C5 (stereo not shown) [Compound 35]
anti-tumor efficacy, statistical significance (mice sarcoma S180): statistically significant
Tumor weight (mice sarcoma S180): 0.78 ± 0.33 g
Inhibition rate (%) (mice sarcoma S180): 59.25** %
body Weight (g) After ad. ([1]; mouse, in vivo): 26.86 ± 1.81 g
body Weight (g) Before ad. ([1]; mouse, in vivo): 20.08 ± 1.92 g

COC(=O)/C(C)=C\CC12OC(C)(C)C3CC(C1=O)C1C4=C(c5ccccc5C4=O)N4CCNC45c4c(O)c6c(c(CC=C(C)C)c4OC32C15)OC(C)(CCC=C(C)C)C=C6 (stereo not shown) [Compound 306]
Tumor weight (mice sarcoma S180): 1.29 ± 0.49 g
Inhibition rate (%) (mice sarcoma S180): 36.77* %
body Weight (g) After ad. ([1]; mouse, in vivo): 26.98 ± 3.02 g
body Weight (g) Before ad. ([1]; mouse, in vivo): 20.75 ± 1.33 g
